# Laboratory results published in patent US20260242356A1, “BICYCLIC HETEROCYCLIC AMIDE INHIBITORS OF NAv1.8 FOR THE TREATMENT OF PAIN” (priority 2022, published 2026).
# Target: T1, human NaV sodium channel α-subunit NaV 1.8 (Homo sapiens, UniProt Q9Y5Y9)
# T1 construct: transfected with the full-length cDNA coding for the appropriate human NaV sodium channel α-subunit NaV 1.8; expressed in transfected cells; host or cells: HEK293 cells
# Experiment: NaV inhibition assay, whole-cell patch-clamp (HEKA EPC 9 amplifier)
# Type: cell-based
# Experimental: Electrophysiology experiments were performed on Human Embryonic Kidney 293 cells (HEK) or Chinese hamster ovary cells (CHO) transfected with the full-length cDNA coding for the appropriate human NaV sodium channel α-subunit NaV 1.8. Similarly, experiments are performed on Human Embryonic Kidney 293 cells (HEK) or Chinese hamster ovary cells (CHO) transfected with the full-length cDNA coding for the appropriate human NaV sodium channel α-subunit, including NaV 1.7, NaV 1.6, NaV 1.5, and NaV 1.4.
# Sodium currents were measured using the patch-clamp technique in the whole-cell configuration with a HEKA EPC 9 amplifier (HEKA Elektronik Dr. Schulze GmbH, Germany) or can be measured using an IonFlux 16 automated patch clamp system (Fluxion Biosciences, South San Francisco, USA) as previously described by Moran. See, Moran O, Picollo A, Conti F (2003) Tonic and phasic guanidinium toxin-block of skeletal muscle Na channels expressed in Mammalian cells, Biophys J 84(5):2999-3006. For manual patch-clamp experiments, borosilicate glass micropipettes (Sutter Instruments, Novato, CA) were pulled to a tip diameter yielding a resistance of 1.0-2.0 MΩ in the working solutions. The composition of intracellular solution was (in mM): CsF 125, EGTA 10, HEPES 10, NaCl 10, and the pH was adjusted to 7.2 with CsOH. The composition of extracellular solution was (in mM): NaCl 135, KCl 4.5, CaCl2 2, MgCl2 1, HEPES 10, and the pH was adjusted to 7.4 with NaOH. For human NaV 1.8, 0.3-1 μM tetrodotoxin (TTX) was added to the extracellular solution to inhibit native TTX-sensitive current. Peak currents were generally between 0.5-20 nA.
# Lyophilized stock of each test article was stored at −20° C., solubilized in DMSO (maximum final concentration 1%) and diluted to the desired concentration with the external solution prior to recording. Current measurements were recorded under continuous perfusion, controlled by syringe pump addition.
# The output of the EPC 9 patch-clamp amplifier was filtered with a built-in low-pass, four-pole Bessel filter having a cutoff frequency of 10 kHz and sampled at 20-50 kHz. For both manual and automated recordings, the membrane was kept at a holding potential of between −120 and −80 mV. Pulse stimulation and data acquisition were controlled with the Pulse software (HEKA Elektronik Dr. Schulze GmbH, Germany) or the IonFlux software (Fluxion Biosciences, South San Francisco, USA). All measurements were performed at room temperature (about 20-22° C.). Recordings were made at least 5 min after establishing the whole-cell and voltage-clamp configuration to allow for stabilization of the voltage-dependent properties of the channels. Currents were elicited by 10-50 ms step depolarizations from a holding potential to a value between −40 and +10 mV. Peak currents after channel activation were recorded. […] Data were fit to a four-parameter logistic equation with the Hill slope set to 1 to determine IC50 values and expressed as mean.
# For Table 1 and Table 2, all data were measured in HEK cells. Column 1 provides IC50 data for NaV 1.8 as measured using the patch-clamp technique in the whole-cell configuration with a HEKA EPC 9 amplifier, where +++ indicates an IC50 of less than or equal to 20 nM, ++ indicates an IC50 of greater than 20 nM but less that or equal to 100 nM, and + indicates an IC50 of greater than 100 nM but less that or equal to […]. ND means not detectable. NT means not tested.
# T1 sequence (Q9Y5Y9 whole entry): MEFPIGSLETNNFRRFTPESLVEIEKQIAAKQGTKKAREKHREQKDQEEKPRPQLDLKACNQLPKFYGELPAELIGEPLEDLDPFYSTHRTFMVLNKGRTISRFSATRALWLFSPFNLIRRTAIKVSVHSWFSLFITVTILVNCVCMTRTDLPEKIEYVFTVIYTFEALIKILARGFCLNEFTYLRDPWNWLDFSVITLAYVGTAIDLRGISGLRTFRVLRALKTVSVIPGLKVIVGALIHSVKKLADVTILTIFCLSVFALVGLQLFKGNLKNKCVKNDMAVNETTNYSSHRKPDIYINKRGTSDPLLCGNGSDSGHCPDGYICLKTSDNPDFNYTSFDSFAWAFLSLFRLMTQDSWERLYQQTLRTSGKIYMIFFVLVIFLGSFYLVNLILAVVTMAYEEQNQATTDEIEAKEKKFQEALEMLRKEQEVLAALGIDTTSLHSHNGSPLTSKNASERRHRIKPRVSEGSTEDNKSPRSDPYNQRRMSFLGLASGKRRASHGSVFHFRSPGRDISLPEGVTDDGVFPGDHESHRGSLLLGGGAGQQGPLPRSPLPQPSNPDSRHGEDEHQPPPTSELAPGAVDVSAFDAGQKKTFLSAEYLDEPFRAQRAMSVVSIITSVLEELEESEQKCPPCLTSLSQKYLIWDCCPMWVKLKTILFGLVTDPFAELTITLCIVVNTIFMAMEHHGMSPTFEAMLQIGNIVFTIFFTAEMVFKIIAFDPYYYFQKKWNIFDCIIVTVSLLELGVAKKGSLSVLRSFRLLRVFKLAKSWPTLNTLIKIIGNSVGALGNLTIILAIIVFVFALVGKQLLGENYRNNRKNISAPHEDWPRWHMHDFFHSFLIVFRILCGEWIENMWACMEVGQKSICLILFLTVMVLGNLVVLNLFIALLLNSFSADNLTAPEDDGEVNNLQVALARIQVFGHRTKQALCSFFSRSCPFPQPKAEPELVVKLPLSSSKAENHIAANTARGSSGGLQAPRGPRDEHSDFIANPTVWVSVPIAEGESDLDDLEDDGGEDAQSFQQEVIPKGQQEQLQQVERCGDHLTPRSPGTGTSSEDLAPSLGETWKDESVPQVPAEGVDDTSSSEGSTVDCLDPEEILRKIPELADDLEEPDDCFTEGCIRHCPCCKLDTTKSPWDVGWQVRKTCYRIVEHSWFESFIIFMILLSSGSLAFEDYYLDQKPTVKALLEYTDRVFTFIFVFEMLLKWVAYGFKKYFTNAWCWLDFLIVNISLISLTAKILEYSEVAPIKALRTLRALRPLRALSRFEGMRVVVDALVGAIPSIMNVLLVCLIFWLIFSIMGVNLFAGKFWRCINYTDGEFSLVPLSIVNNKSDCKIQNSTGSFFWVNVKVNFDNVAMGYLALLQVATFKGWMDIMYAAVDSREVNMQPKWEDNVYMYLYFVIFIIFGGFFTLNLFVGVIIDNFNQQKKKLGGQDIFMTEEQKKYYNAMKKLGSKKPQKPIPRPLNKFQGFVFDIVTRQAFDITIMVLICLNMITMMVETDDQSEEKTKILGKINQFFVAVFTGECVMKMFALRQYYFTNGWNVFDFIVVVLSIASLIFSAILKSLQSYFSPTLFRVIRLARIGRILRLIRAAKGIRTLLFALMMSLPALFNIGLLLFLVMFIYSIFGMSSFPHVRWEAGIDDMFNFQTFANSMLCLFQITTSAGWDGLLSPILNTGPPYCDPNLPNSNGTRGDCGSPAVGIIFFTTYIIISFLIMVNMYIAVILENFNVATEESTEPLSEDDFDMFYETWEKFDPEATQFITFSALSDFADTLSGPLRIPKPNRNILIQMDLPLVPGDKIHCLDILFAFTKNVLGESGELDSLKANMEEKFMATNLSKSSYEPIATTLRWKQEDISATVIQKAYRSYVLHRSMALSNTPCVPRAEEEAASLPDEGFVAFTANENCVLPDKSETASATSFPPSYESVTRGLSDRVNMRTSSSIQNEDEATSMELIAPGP
Compound,IC50,"NaV1.8 IC50 (nM) (HEK cells transfected with human NaV 1.8, whole-cell patch-clamp, 0.3-1 μM TTX in extracellular solution, room temperature)"
"NS(=O)(=O)c1cccc(NC(=O)c2cc3c(nc2N2CCCC(F)(F)CC2)CCCC3)c1 [Compound 18, 2-(4,4-difluoroazepan-1-yl)-N-(3-sulfamoylphenyl)-5,6,7,8-tetrahydroquinoline-3-carboxamide]",20 to 100 nM,
"NS(=O)(=O)c1cccc(NC(=O)c2cc3cnccc3nc2N2CCCC(F)(F)CC2)c1 [Compound 20, 2-(4,4-difluoroazepan-1-yl)-N-(3-sulfamoylphenyl)-1,6-naphthyridine-3-carboxamide]",20 to 100 nM,
"CC1CN(c2nc3ccccc3cc2C(=O)Nc2cccc(S(N)(=O)=O)c2)CCC1(F)F (stereo not drawn) [Compound 5, 2-(4,4-difluoro-3-methylpiperidin-1-yl)-N-(3-sulfamoylphenyl)quinoline-3-carboxamide]",< 20 nM,
"NS(=O)(=O)c1cccc(NC(=O)c2cc3cc(F)ccc3nc2N2CCCC(F)(F)CC2)c1 [Compound 9, 2-(4,4-difluoroazepan-1-yl)-6-fluoro-N-(3-sulfamoylphenyl)quinoline-3-carboxamide]",20 to 100 nM,
"Nc1noc2ccc(NC(=O)c3cc4ccccc4nc3N3CCCC(F)(F)CC3)cc12 [Compound 3, N-(3-aminobenzo[d]isoxazol-5-yl)-2-(4,4-difluoroazepan-1-yl)quinoline-3-carboxamide]",< 20 nM,
"NS(=O)(=O)c1cccc(NC(=O)c2nc3ccccc3nc2N2CCCC(F)(F)CC2)c1 [Compound 8, 3-(4,4-difluoroazepan-1-yl)-N-(3-sulfamoylphenyl)quinoxaline-2-carboxamide]",20 to 100 nM,
"NS(=O)(=O)c1cccc(NC(=O)c2cc3ccc(Cl)cc3nc2N2CCCC(F)(F)CC2)c1 [Compound 13, 7-chloro-2-(4,4-difluoroazepan-1-yl)-N-(3-sulfamoylphenyl)quinoline-3-carboxamide]",20 to 100 nM,
NS(=O)(=O)c1cccc(NC(=O)c2cc3cc(C(F)(F)F)ccc3nc2N2CCCC(F)(F)CC2)c1 [Compound 17],< 20 nM,
"NS(=O)(=O)c1cccc(NC(=O)c2cc3ccncc3nc2N2CCCC(F)(F)CC2)c1 [Compound 15, 2-(4,4-difluoroazepan-1-yl)-N-(3-sulfamoylphenyl)-1,7-naphthyridine-3-carboxamide]",< 20 nM,
"NS(=O)(=O)c1cccc(NC(=O)c2cc3ccccc3nc2N2CCCC(F)(F)CC2)c1 [Compound 2, 2-(4,4-difluoroazepan-1-yl)-N-(3-sulfamoylphenyl)quinoline-3-carboxamide]",< 20 nM,
"CS(=O)(=O)c1cccc(NC(=O)c2nc3ccccc3nc2N2CCCC(F)(F)CC2)c1 [Compound 6, 3-(4,4-difluoroazepan-1-yl)-N-(3-methanesulfonylphenyl)quinoxaline-2-carboxamide]",< 20 nM,
"NC(=O)c1cccc(NC(=O)c2nc3ccccc3nc2N2CCCC(F)(F)CC2)c1 [Compound 14, N-(3-carbamoylphenyl)-3-(4,4-difluoroazepan-1-yl)quinoxaline-2-carboxamide]",20 to 100 nM,
"COc1ccc2cc(C(=O)Nc3cccc(S(N)(=O)=O)c3)c(N3CCCC(F)(F)CC3)nc2c1 [Compound 16, 2-(4,4-difluoroazepan-1-yl)-7-methoxy-N-(3-sulfamoylphenyl)quinoline-3-carboxamide]",20 to 100 nM,
"COc1ccc2nc(N3CCCC(F)(F)CC3)c(C(=O)Nc3cccc(S(N)(=O)=O)c3)cc2c1 [Compound 11, 2-(4,4-difluoroazepan-1-yl)-6-methoxy-N-(3-sulfamoylphenyl)quinoline-3-carboxamide]",< 20 nM,
"CS(=N)(=O)c1cccc(NC(=O)c2cc3ccccc3nc2N2CCCC(F)(F)CC2)c1 (stereo not drawn) [Compound 1, 2-(4,4-difluoroazepan-1-yl)-N-(3-(S-methylsulfonimidoyl)phenyl)quinoline-3-carboxamide]",< 20 nM,
"NS(=O)(=O)c1cccc(NC(=O)c2cc3cc(F)c(F)cc3nc2N2CCCC(F)(F)CC2)c1 [Compound 10, 2-(4,4-difluoroazepan-1-yl)-6,7-difluoro-N-(3-sulfamoylphenyl)quinoline-3-carboxamide]",20 to 100 nM,
"CS(=N)(=O)c1cccc(NC(=O)c2nc3ccccc3nc2N2CCCC(F)(F)CC2)c1 (stereo not drawn) [Compound 7, 3-(4,4-difluoroazepan-1-yl)-N-(3-(S-methylsulfonimidoyl)phenyl)quinoxaline-2-carboxamide]",20 to 100 nM,
"NS(=O)(=O)c1cccc(NC(=O)c2cc3ccc(F)cc3nc2N2CCCC(F)(F)CC2)c1 [Compound 28, 2-(4,4-difluoroazepan-1-yl)-7-fluoro-N-(3-sulfamoylphenyl)quinoline-3-carboxamide]",< 20 nM,
"NC(=O)c1cccc(NC(=O)c2cc3ccccc3nc2N2CCCC(F)(F)CC2)c1 [Compound 4, N-(3-carbamoylphenyl)-2-(4,4-difluoroazepan-1-yl)quinoline-3-carboxamide]",< 20 nM,
"NS(=O)(=O)c1cccc(NC(=O)c2cc3cc(Cl)ccc3nc2N2CCCC(F)(F)CC2)c1 [Compound 12, 6-chloro-2-(4,4-difluoroazepan-1-yl)-N-(3-sulfamoylphenyl)quinoline-3-carboxamide]",< 20 nM,
"NS(=O)(=O)c1cccc(NC(=O)c2cc3cccnc3nc2N2CCCC(F)(F)CC2)c1 [Compound 19, 2-(4,4-difluoroazepan-1-yl)-N-(3-sulfamoylphenyl)-1,8-naphthyridine-3-carboxamide]",,+ (+ indicates an IC50 of greater than 100 nM but less that or equal to 1.5 M)
